Where two headings read alike, the source gives them in different places.
How the values were obtained:
[1] = tested on: human HepG2 hepatic cancer cells; assay: MTT cell viability assay; assay type: cell-based; details: HepG2, MTT, 48 hours, at 200 μg
Procedure: The human liver cells were cultivated in Dulbecco's modified Eagle medium (DMEM) in which 100 U mL^−1 penicillin, 10% fetal bovine and […] streptomycin were added and kept at 37 °C in a […] carbon dioxide induced humidified environment. The human liver cells prepared as per above procedure were then treated with synthesized compounds diluted to 0.05% DMSO concentration.
Using MTT assay, the % viability of cancer cells 36 was evaluated. According to the standard procedure, HepG2 cells were treated with various dosages of synthesized compounds for 48 hours each. The cells were then incubated for 4 hours at 37 °C with 10μ MTT reagent (5 mg mL^−1). Next, in 150 μL DMSO was added to dissolve formazan crystals. The λmax was recorded at 409 nm in a microplate reader (thermos scientific).

[2] = tested on: H.pylori; assay: Antibacterial activity, agar well diffusion method; assay type: cell-based, Helicobacter pylori; details: Table S2 and b89; unit not given
Text: (§1) Antibacterial activity of the isolated and synthesized compounds was perform using agar well method. Three bacterial strains selected for this experiment were H.pylori, B. subtilis and S. aureus, for all of three strains compounds show good to mederate inhibition. […] The presence of H. pylori in the stomach has been associated with a range of gastric disorders, including peptic ulcers, gastritis, and an increased risk of gastric cancer. The bacterium's ability to manipulate the gastric environment through urease activity underscores its role in the development and progression of these conditions. Different studies have targeted H. pylori and its urease activity as potential avenues for therapeutic intervention and disease management (Fig. 4).
(§2) The agar well diffusion method evaluated every compound separately. Each sterile Petri plate was aseptically filled with 20 mL of the agar medium, which was then […]. The media then solidified at room temperature. Various bacterial strains were put to agar plates using a sterile cotton swab. A 6 mm-diameter well was drilled using a sterilized cork borer. Each isolated compound was dissolved in 1 mL of a 20% DMSO solution. In a well with a diameter of 6 mm, […] of the standard drug and isolated compounds were added. […] The zone of inhibition was graphed and quantified in millimeters.[20]

[3] = tested on: S. aureus; assay: Antibacterial activity, agar well diffusion method; assay type: cell-based, Staphylococcus aureus; details: Table S2 and b89; unit not given
[4] = tested on: B. subtilis; assay: Antibacterial activity, agar well diffusion method; assay type: cell-based; details: Table S2; unit not given
Text: as §1, §2

[5] = biological target: Jack bean urease (Canavalia ensiformis, UniProt P07374); assay: biochemical; assay type: biochemical
Chain of Jack bean urease (P07374 whole entry, looked up): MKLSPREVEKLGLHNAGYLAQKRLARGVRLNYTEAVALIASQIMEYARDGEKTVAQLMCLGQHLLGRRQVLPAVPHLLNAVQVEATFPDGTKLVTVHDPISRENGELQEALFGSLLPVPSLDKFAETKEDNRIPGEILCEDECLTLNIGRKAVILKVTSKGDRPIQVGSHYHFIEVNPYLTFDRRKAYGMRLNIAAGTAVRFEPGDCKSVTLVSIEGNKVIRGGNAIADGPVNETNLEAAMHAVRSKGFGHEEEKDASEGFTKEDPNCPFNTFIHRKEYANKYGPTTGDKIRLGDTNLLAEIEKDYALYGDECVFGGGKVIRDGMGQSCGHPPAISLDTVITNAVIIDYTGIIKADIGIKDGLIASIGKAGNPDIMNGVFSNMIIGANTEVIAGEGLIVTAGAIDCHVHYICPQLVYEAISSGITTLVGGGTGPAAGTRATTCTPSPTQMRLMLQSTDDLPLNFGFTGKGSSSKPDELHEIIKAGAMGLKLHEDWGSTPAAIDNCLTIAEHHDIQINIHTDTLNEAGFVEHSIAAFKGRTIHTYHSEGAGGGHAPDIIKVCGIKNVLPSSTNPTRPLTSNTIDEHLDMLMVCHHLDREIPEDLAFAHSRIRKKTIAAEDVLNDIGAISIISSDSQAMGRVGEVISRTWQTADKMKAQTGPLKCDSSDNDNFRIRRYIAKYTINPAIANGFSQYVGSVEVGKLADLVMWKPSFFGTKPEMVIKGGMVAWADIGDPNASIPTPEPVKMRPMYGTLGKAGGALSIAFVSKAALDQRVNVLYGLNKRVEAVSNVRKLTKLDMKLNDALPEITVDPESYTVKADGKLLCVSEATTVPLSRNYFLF
Procedure: The inhibition potential of the isolated compounds against urease was investigated using a SpectraMax M2 reader using 96-well microplates.
The kinetic assay involved preparing varying concentrations of both the test compound and the substrate (urea), spanning 0 μM, 5 μM, 10 μM, 15 μM, and 20 μM. The resulting data was utilized to construct a Lineweaver–Burk plot.
In 96-well plates were incubated at 37 °C for 15 min, reaction mixtures consisting of 25 μL of test compounds (each 0.5 mM), 25 μL of enzyme solution (Jack bean urease) and 55 μL of buffers containing 20.79 mM urea. The indophenol method described by Weatherburn[21] was used to determine urease inhibitor activity by measuring ammonia production. Briefly, to each well were added 70 μL of alkaline reagent (0.5% w/v NaOH and 0.1% active chloride, NaOCl) and 45 μL of phenolic reagent (1% w/v phenol and 0.005% w/v sodium nitroprusside). The microplate reader (Molecular Devices, USA) was used to measure the increase in absorbance at 650 nm after 50 min. A final volume of 245 μL was required to perform all reactions in a triplicate. The results (absorbance change per minute) were processed using SoftMax Pro software (Molecular Devices, USA). All assays were performed at pH 6.8. Inhibition percentages were calculated from the formula% Inhibition = 100 − (Abs(sample)/Abs(control)) × 100where “A” is the absorbance of the “test well” as well as the “control”. Thiourea was used as a standard.

SMILES: O=c1cc(-c2ccc(O)c(O)c2)oc2cc(O)c([C@@H]3O[C@H](CO)[C@@H](O)[C@H](O)[C@H]3O)c(O)c12 [Compound 7, Luteolin-6-C-β-D-glucopyranoside]
- % Viability [1]: 97.94 ± 3.53%
- Antibacterial activity (MIC) against H.Pylori [2]: 1.23
- Antibacterial activity (MIC) against S. aureus [3]: 0.78
- Antibacterial activity against B. subtilis [4]: 0.12
- IC50 ([5]; pH 6.8, read-out: IC50 ± SEM, urease): 1220 ± 430 nM
- % Inhibition of urease ([5]; test compounds each 0.5 mM, pH 6.8): 81.57%
- IC50 ([5]; unit inferred, read-out: IC50, urease (printed in Fig. 6)): 1220 ± 430 nM

— paper PMC10945739, “Exploring Cassia mimosoïdes as a promising natural source of steroids with potent anti-cancer, urease inhibition, and antimicrobial properties” (RSC Advances, 2024)
